This note sets out measurements from ChEMBL document CHEMBL1136170, “5-aryl thiazolidine-2,4-diones: discovery of PPAR dual alpha/gamma agonists as antidiabetic agents” (Bioorg Med Chem Lett, 2003).

pEC50, pIC50: −log10 of the molar value.

For the first data set, the system named is Mus musculus. In words: In vivo efficacy as percent glucose correction in male db/db mice at 10 mg/kg oral dose. It is filed as functional.
Details: not given
In turn, `CCCc1cc(Oc2ccc(F)c(C)c2)ccc1OCCCOc1cccc(C2SC(=O)NC2=O)c1` (configuration not stated) registered a Glucose correction of 78%.
Molecule `CCCc1cc(Oc2ccccc2)ccc1OCCCOc1cccc(C2SC(=O)NC2=O)c1` (configuration not stated) registered a Glucose correction of 91%.
Same read-out and setting: the result for `CCCc1cc(Oc2ccc(Cl)cc2)ccc1OCCCOc1cccc(C2SC(=O)NC2=O)c1` (configuration not stated) reads 86%; that for `CCCc1cc(Oc2ccc(Cl)c(Cl)c2)ccc1OCCCOc1cccc(C2SC(=O)NC2=O)c1` (configuration not stated), 79%; that for `CCCc1cc(Oc2ccc(F)cc2)ccc1OCCCOc1cccc(C2SC(=O)NC2=O)c1` (configuration not stated), 90%.
Regarding `CN(CCOc1ccc(CC2SC(=O)NC2=O)cc1)c1ccccn1` (configuration not stated) [ROSIGLITAZONE], the Glucose correction came to 67%.

In another data set the target is T1, Peroxisome proliferator-activated receptor delta (Homo sapiens, UniProt Q03181).
T1 sequence (Q03181 whole entry): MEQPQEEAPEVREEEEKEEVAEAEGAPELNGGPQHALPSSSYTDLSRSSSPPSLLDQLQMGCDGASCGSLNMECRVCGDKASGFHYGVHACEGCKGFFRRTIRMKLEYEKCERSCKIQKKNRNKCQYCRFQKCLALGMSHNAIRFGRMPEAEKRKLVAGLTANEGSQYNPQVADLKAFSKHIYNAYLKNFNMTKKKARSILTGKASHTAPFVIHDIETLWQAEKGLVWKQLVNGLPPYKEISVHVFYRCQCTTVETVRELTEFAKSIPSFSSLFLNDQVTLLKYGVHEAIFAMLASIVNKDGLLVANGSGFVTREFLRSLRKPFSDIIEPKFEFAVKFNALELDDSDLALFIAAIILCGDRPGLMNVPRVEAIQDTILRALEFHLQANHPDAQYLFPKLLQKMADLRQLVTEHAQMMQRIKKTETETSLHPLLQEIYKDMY
Details: not given
Turning to `CCCc1cc(Oc2ccc(Cl)c(C)c2)ccc1OCCCOc1cccc(C2SC(=O)NC2=O)c1` (configuration not stated), the pEC50 is < 5.52.
The same measure, in the same setting: the result for `CCCc1cc(Oc2ccc(C3CCCC3)cc2)ccc1OCCCOc1cccc(C2SC(=O)NC2=O)c1` (configuration not stated) reads < 5.52.
Still for that read-out and setting: as for `CCCc1cc(Oc2ccc(F)c(C)c2)ccc1OCCCOc1cccc(C2SC(=O)NC2=O)c1` (configuration not stated), the figure is < 4.30.
Take `CCCc1cc(Oc2ccc(O)cc2)ccc1OCCCOc1cccc(C2SC(=O)NC2=O)c1` (configuration not stated): the pEC50 is < 5.52.
For `CCCc1cc(Oc2ccc(Cl)cc2)ccc1OCCCOc1cccc(C2SC(=O)NC2=O)c1` (configuration not stated), the pEC50 was < 5.52.
Still for that read-out and setting: as for `CCCc1cc(Oc2ccc(Cl)c(Cl)c2)ccc1OCCCOc1cccc(C2SC(=O)NC2=O)c1` (configuration not stated), the figure is < 5.52; as for `CCCc1cc(Oc2ccc(OC)cc2)ccc1OCCCOc1cccc(C2SC(=O)NC2=O)c1` (configuration not stated), < 5.52.
With `CCCc1cc(Oc2ccc(C(C)C)cc2)ccc1OCCCOc1cccc(C2SC(=O)NC2=O)c1` (configuration not stated), the pEC50 is < 5.52.
The same measure, in the same setting: the result for `CCCc1cc(Oc2ccc(F)cc2)ccc1OCCCOc1cccc(C2SC(=O)NC2=O)c1` (configuration not stated) reads < 5.52.
The same measure, in the same setting: the result for `CCCc1cc(Oc2ccc(-c3ccccc3)cc2)ccc1OCCCOc1cccc(C2SC(=O)NC2=O)c1` (configuration not stated) reads < 5.52.

System in the next data set: not listed separately
Nature of the data set: Oral bioavailability in rat (Sprague-Dawley) (fasted male) (dose 2 mg/kg). The format is ADME, organism-based. Conditions: in vivo.
Turning to `CCCc1cc(Oc2ccc(F)c(C)c2)ccc1OCCCOc1cccc(C2SC(=O)NC2=O)c1` (configuration not stated), the bioavailability came to 20%.
`CCCc1cc(Oc2ccc(Cl)cc2)ccc1OCCCOc1cccc(C2SC(=O)NC2=O)c1` (configuration not stated) returned a bioavailability of 44%.
The molecule `CCCc1cc(Oc2ccc(Cl)c(Cl)c2)ccc1OCCCOc1cccc(C2SC(=O)NC2=O)c1` (configuration not stated) had a bioavailability of 19%.
`CCCc1cc(Oc2ccc(C(C)C)cc2)ccc1OCCCOc1cccc(C2SC(=O)NC2=O)c1` (configuration not stated) registered a bioavailability of 6%.
Still for that read-out and setting: the result for `CCCc1cc(Oc2ccc(F)cc2)ccc1OCCCOc1cccc(C2SC(=O)NC2=O)c1` (configuration not stated) reads 66%.

A further data set relates to Rattus norvegicus. In words: Dose-normalized AUC measured in fasted male Sprague dawely rats when the compound was administered at a peroral dose of 2 mg/Kg. The note with it: in vivo, po. It is filed as ADME, organism-based.
For `CCCc1cc(Oc2ccc(F)c(C)c2)ccc1OCCCOc1cccc(C2SC(=O)NC2=O)c1` (configuration not stated), the nAUC is on record as 0.6 uMh.
Take `CCCc1cc(Oc2ccccc2)ccc1OCCCOc1cccc(C2SC(=O)NC2=O)c1` (configuration not stated): the nAUC was 21.78 uMh.
Same read-out and setting: as for `CCCc1cc(Oc2ccc(Cl)cc2)ccc1OCCCOc1cccc(C2SC(=O)NC2=O)c1` (configuration not stated), the figure is 1.5 uMh.
`CCCc1cc(Oc2ccc(Cl)c(Cl)c2)ccc1OCCCOc1cccc(C2SC(=O)NC2=O)c1` (configuration not stated) registered a nAUC of 0.8 uMh.
`CCCc1cc(Oc2ccc(F)cc2)ccc1OCCCOc1cccc(C2SC(=O)NC2=O)c1` (configuration not stated) had a nAUC of 3.3 uMh.
The same measure, in the same setting: as for `CN(CCOc1ccc(CC2SC(=O)NC2=O)cc1)c1ccccn1` (configuration not stated) [ROSIGLITAZONE], the figure is 16.4 uMh.

System in the next data set: not listed separately
In words: Bioavailability in fasted male administration of 2 mg/Kg of compound p.o. It is filed as ADME, organism-based. The note with it: rat, in vivo, po.
`CCCc1cc(Oc2ccccc2)ccc1OCCCOc1cccc(C2SC(=O)NC2=O)c1` (configuration not stated) gave a bioavailability of 62%.

In another data set the test system is Mus musculus. In words: In vivo efficacy as percent triglyceride correction in male db/db mice at 10 mg/kg oral dose. It is filed as functional.
Details: not given
Turning to `CCCc1cc(Oc2ccc(F)c(C)c2)ccc1OCCCOc1cccc(C2SC(=O)NC2=O)c1` (configuration not stated), the Triglyceride correction turned out to be 69%.
The same measure, in the same setting: the result for `CCCc1cc(Oc2ccccc2)ccc1OCCCOc1cccc(C2SC(=O)NC2=O)c1` (configuration not stated) reads 67%; that for `CCCc1cc(Oc2ccc(Cl)cc2)ccc1OCCCOc1cccc(C2SC(=O)NC2=O)c1` (configuration not stated), 68%; that for `CCCc1cc(Oc2ccc(Cl)c(Cl)c2)ccc1OCCCOc1cccc(C2SC(=O)NC2=O)c1` (configuration not stated), 77%.
As to `CCCc1cc(Oc2ccc(F)cc2)ccc1OCCCOc1cccc(C2SC(=O)NC2=O)c1` (configuration not stated), the Triglyceride correction is 76%.
For `CN(CCOc1ccc(CC2SC(=O)NC2=O)cc1)c1ccccn1` (configuration not stated) [ROSIGLITAZONE], the Triglyceride correction turned out to be 74%.

System in the next data set: not listed separately
In words: Half life was measured in fasted male administration of compound 0.5 mg/Kg i.v. It is filed as ADME, organism-based. The note with it: rat, in vivo, iv.
In turn, `CCCc1cc(Oc2ccc(F)c(C)c2)ccc1OCCCOc1cccc(C2SC(=O)NC2=O)c1` (configuration not stated) gave a half-life of 3.3 h.
Still for that read-out and setting: as for `CCCc1cc(Oc2ccccc2)ccc1OCCCOc1cccc(C2SC(=O)NC2=O)c1` (configuration not stated), the figure is 1.5 h.
Still for that read-out and setting: as for `CCCc1cc(Oc2ccc(Cl)cc2)ccc1OCCCOc1cccc(C2SC(=O)NC2=O)c1` (configuration not stated), the figure is 2.9 h; as for `CCCc1cc(Oc2ccc(Cl)c(Cl)c2)ccc1OCCCOc1cccc(C2SC(=O)NC2=O)c1` (configuration not stated), 2.2 h; as for `CCCc1cc(Oc2ccc(C(C)C)cc2)ccc1OCCCOc1cccc(C2SC(=O)NC2=O)c1` (configuration not stated), 3.3 h.
On the same count and under the same terms, the result for `CCCc1cc(Oc2ccc(F)cc2)ccc1OCCCOc1cccc(C2SC(=O)NC2=O)c1` (configuration not stated) reads 1.3 h.

System in the next data set: not listed separately
In words: Plasma clearance in fasted male Sprague dawely rats on administration of 0.5 mg/Kg i.v. of the compound. It is filed as ADME, organism-based. The note with it: Sprague-Dawley, rat, iv, read-out: Clp.
`CCCc1cc(Oc2ccc(F)c(C)c2)ccc1OCCCOc1cccc(C2SC(=O)NC2=O)c1` (configuration not stated): the clearance amounted to 10.5 mL/min/kg.
Same read-out and setting: as for `CCCc1cc(Oc2ccccc2)ccc1OCCCOc1cccc(C2SC(=O)NC2=O)c1` (configuration not stated), the figure is 9.5 mL/min/kg.
In the case of `CCCc1cc(Oc2ccc(Cl)cc2)ccc1OCCCOc1cccc(C2SC(=O)NC2=O)c1` (configuration not stated), the clearance came out at 9.7 mL/min/kg.
On to `CCCc1cc(Oc2ccc(Cl)c(Cl)c2)ccc1OCCCOc1cccc(C2SC(=O)NC2=O)c1` (configuration not stated), for which the clearance was 7.9 mL/min/kg.
Same read-out and setting: as for `CCCc1cc(Oc2ccc(C(C)C)cc2)ccc1OCCCOc1cccc(C2SC(=O)NC2=O)c1` (configuration not stated), the figure is 6.1 mL/min/kg.
`CCCc1cc(Oc2ccc(F)cc2)ccc1OCCCOc1cccc(C2SC(=O)NC2=O)c1` (configuration not stated): the clearance came out at 10.2 mL/min/kg.

Another data set deals with T1, Peroxisome proliferator-activated receptor delta.
Details: not given
The source holds these as a separate data set.
On to `CCCc1cc(Oc2ccc(CC(C)C)cc2)ccc1OCCCOc1cccc(C2SC(=O)NC2=O)c1` (configuration not stated), for which the pIC50 is < 4.30.
`CCCc1cc(Oc2ccc(C(C)(C)C)cc2)ccc1OCCCOc1cccc(C2SC(=O)NC2=O)c1` (configuration not stated): the pIC50 was < 4.30.
Still for that read-out and setting: the result for `CCCc1cc(Oc2ccc(Cl)c(C)c2)ccc1OCCCOc1cccc(C2SC(=O)NC2=O)c1` (configuration not stated) reads < 4.30; that for `CCCc1cc(Oc2ccc(C3CCCC3)cc2)ccc1OCCCOc1cccc(C2SC(=O)NC2=O)c1` (configuration not stated), < 4.30.
The same measure, in the same setting: as for `CCCc1cc(Oc2ccc(F)c(C)c2)ccc1OCCCOc1cccc(C2SC(=O)NC2=O)c1` (configuration not stated), the figure is < 4.30.
The molecule `CCCc1cc(Oc2ccc(O)cc2)ccc1OCCCOc1cccc(C2SC(=O)NC2=O)c1` (configuration not stated) showed a pIC50 of 5.42.
In turn, `CCCc1cc(Oc2ccccc2)ccc1OCCCCOc1cccc(C2SC(=O)NC2=O)c1` (configuration not stated) had a pIC50 of 5.52. The pIC50 values of the last two molecules are within 0.2 log units of each other.
As for `CCCc1cc(Oc2ccc(Cl)cc2)ccc1OCCCOc1cccc(C2SC(=O)NC2=O)c1` (configuration not stated), the pIC50 is < 4.30.
Same read-out and setting: the result for `CCCc1cc(Oc2ccc(Cl)c(Cl)c2)ccc1OCCCOc1cccc(C2SC(=O)NC2=O)c1` (configuration not stated) reads < 4.30.
The same measure, in the same setting: as for `CCCc1cc(Oc2ccc(OC)cc2)ccc1OCCCOc1cccc(C2SC(=O)NC2=O)c1` (configuration not stated), the figure is < 5.00; as for `CCCc1cc(Oc2ccc(C(C)C)cc2)ccc1OCCCOc1cccc(C2SC(=O)NC2=O)c1` (configuration not stated), < 4.30; as for `O=C1NC(=O)C(c2cccc(OCCCOc3ccc(Oc4ccccc4)cc3)c2)S1` (configuration not stated), 6.72.
On the same count and under the same terms, as for `CCCc1cc(Oc2ccc(F)cc2)ccc1OCCCOc1cccc(C2SC(=O)NC2=O)c1` (configuration not stated), the figure is < 5.30; as for `CCCc1cc(Oc2ccc(-c3ccccc3)cc2)ccc1OCCCOc1cccc(C2SC(=O)NC2=O)c1` (configuration not stated), < 4.30.

The next data set deals with T2, Peroxisome proliferator-activated receptor alpha (Homo sapiens, UniProt Q07869).
T2 sequence (Q07869 whole entry): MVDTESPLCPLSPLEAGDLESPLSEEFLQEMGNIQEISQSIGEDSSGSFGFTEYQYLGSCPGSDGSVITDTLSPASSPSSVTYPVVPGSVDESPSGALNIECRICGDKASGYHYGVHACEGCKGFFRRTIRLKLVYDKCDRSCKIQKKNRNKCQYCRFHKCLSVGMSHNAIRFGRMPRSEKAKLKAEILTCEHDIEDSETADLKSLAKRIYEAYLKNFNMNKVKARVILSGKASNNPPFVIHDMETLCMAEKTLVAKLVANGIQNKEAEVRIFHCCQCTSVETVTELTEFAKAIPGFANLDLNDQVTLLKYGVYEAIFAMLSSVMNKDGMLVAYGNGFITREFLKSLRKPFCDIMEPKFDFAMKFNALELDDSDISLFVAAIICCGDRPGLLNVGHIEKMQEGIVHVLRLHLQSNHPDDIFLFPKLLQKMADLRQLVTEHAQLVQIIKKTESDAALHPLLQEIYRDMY
In words: In vitro binding affinity against human Peroxisome proliferator activated receptor alpha.
Details: not given
Regarding `CCCc1cc(Oc2ccccc2)ccc1OCCCOc1ccc(C2SC(=O)NC2=O)cc1` (configuration not stated), the pIC50 is < 4.30.

Another data set relates to Rattus norvegicus. In words: Dose-normalized AUC measured in fasted male Sprague dawely rats when the compound was administered at a peroral of 2 mg/Kg. The format is ADME, organism-based. The note with it: in vivo, po.
Consider `CCCc1cc(Oc2ccc(C(C)C)cc2)ccc1OCCCOc1cccc(C2SC(=O)NC2=O)c1` (configuration not stated), for which the nAUC was determined as 0.3 uMh.
